A melting point compilation (Tetko et al.; mined from patent text by program, amines drawn as free bases though some values may be those of a salt)

Compared with `CCc1cc2c(=O)n3cc(C(N)=O)ccc3nc2s1`, `CCOC(=O)n1cc(C#N)c(-c2cccc(Cl)c2F)c1` is lower in melting point: 278 to 280 °C for the first, 149 °C for the second.

Compared with `COC(=O)c1ccc(N=C(Nc2ccc(C(=O)OC)cc2)c2ccccc2)cc1`, `COc1ccc2oc(C(=O)Nc3ccc(-c4ccc(S(=O)(=O)NC(C(=O)O)C(C)C)cc4)cc3)cc2c1` (stereo not drawn) is higher in melting point: 180 to 182 °C for the first, 257 to 259 °C for the second.

First: COC(=O)NC1(c2ccccc2)CCN(Cc2ccccc2)CC1
Second: CC(Cc1ccccc1)(NC=O)c1ccccc1 (stereo not drawn)
The melting point of the first is higher: 121 to 122 °C for the first, 97 to 99 °C for the second.

First: O=C(NC(=O)c1cccs1)NC1CN2CCC1CC2 (stereo not drawn)
Second: N#Cc1c(N2CCN(C(=O)c3cccs3)CC2)c2cccnc2n(Cc2ccc(F)cc2)c1=O
The melting point of the first is lower: 232 to 233 °C for the first, 271 °C for the second.

First: CCn1nc(-c2ccc(OC)c(F)c2)c(-c2ccc(OC)cc2)cc1=O
Second: COc1ccc(-n2nc(N(C)C)cc2-c2ccc(OCCO)cc2)cc1
The melting point of the first is higher: 123 to 124 °C for the first, 120 to 122 °C for the second.

Compared with `COc1ccc(C)cc1NC(=O)Nc1ccc(C2CCN(C(=O)Nc3cc(OCCO)ccc3Cl)CC2)cc1`, `CNC(=O)c1cc(N(C)C)ccc1Nc1nc(Nc2cc3c(cc2OC)CCN(CC(=O)N(C)C)CC3)ncc1Cl` is lower in melting point: 202 to 205 °C for the first, 96 to 110 °C for the second.

First: CC(=O)Nc1cc(Cl)c(Cl)cc1NC(=O)Nc1cc(C(F)(F)F)ccc1Cl
Second: O=C(Nc1cc(Cl)c(O)c(Cl)c1)c1ccc(O)cc1O
The melting point of the first is higher: 262 to 264 °C for the first, 235 to 237 °C for the second.

First: COc1ccc2c(c1)N1CCOCC1CN=C2c1ccco1 (stereo not drawn)
Second: COc1ccc(-c2cc3c4n(ccc-3n2)CC(C)=N4)cc1
The melting point of the first is lower: 130 to 132 °C for the first, 168 °C for the second.

Compared with `Cc1nc(Cl)c2ccccc2c1CC(=O)O`, `O=C(O)c1cccc2ncc(-c3ccccc3)cc12` is higher in melting point: 180 to 183 °C for the first, greater than 290 °C for the second.

First: CC1c2cccc3c2N(CC3)c2ccccc2N1C(=O)CCBr (stereo not drawn)
Second: COC(=O)C1N(c2c(C)cccc2C)C(=N)C(C)N1c1c(C)cccc1C (stereo not drawn)
The melting point of the first is higher: 149 to 151 °C for the first, 141 to 142 °C for the second.

Compared with `NC(=O)C1=CCNCC1`, `CN1CCNC(=O)c2cccc(N)c21` is higher in melting point: 104 to 106 °C for the first, 130 to 133 °C for the second.

First: O=C(O)c1coc2ccc(Br)cc2c1=O
Second: O=C(O)c1cc(Br)no1
The melting point of the first is higher: 260 to 264 °C for the first, 176 to 177 °C for the second.

Compared with `COCCCNC(=O)c1ccc(-c2cc(-c3c(-c4cccc(C)n4)nc4ccccn34)ccn2)cc1`, `COc1ccc(-n2nc(OC(C)C)cc2-c2ccc(OCCNC(N)=O)cc2)cc1` is lower in melting point: 165 °C for the first, 139 to 140 °C for the second.

First: CN(c1ccc(Br)cc1)S(=O)(=O)c1cccc(C(=O)Nc2ccc(Cl)cc2F)c1
Second: CS(=O)(=O)N(Cc1ccccc1)c1ccc(C(=O)CBr)cc1
The melting point of the first is higher: 117 to 118 °C for the first, 101 to 103 °C for the second.

First: CCc1oc2ccccc2c1C(=O)NCc1ccc2cc(O)ccc2c1
Second: COc1ccc(S(=O)(=O)Nc2cccnc2Nc2ccccc2O)cc1
The melting point of the first is higher: 203 to 205 °C for the first, 154 to 155 °C for the second.

First: CCNC(=O)[C@H](C)NC(=O)[C@H](C)NC(=O)CC
Second: CCC#CC(C)(C)NC(=O)C(CC)Oc1cncc(C(=O)O)c1 (stereo not drawn)
The melting point of the first is higher: 289 to 291 °C for the first, 162 to 164 °C for the second.

First: CN1C(=O)C(c2ccc(OC(F)(F)F)c(F)c2)(c2ccc(F)c(-c3cncc(F)c3)c2)N=C1N (stereo not drawn)
Second: Cc1cc(F)ccc1-c1nc(NC2CCOCC2)nc2c1ccc(=O)n2-c1c(F)cccc1F
The melting point of the first is lower: 91 to 97 °C for the first, 231 to 232 °C for the second.

First: CCCCCCCCCCCCCCCCC[C@H](O)C[C@@H]1OC(=O)[C@H]1CC
Second: CCCCN1N=C(c2ccc3c(c2)C(C)(C)CC(=O)N3C)C(C)CC1=O (stereo not drawn)
The melting point of the first is lower: 80 to 82 °C for the first, 137 to 139 °C for the second.

First: CC(C)Nc1n[nH]c2nc(Oc3ccc(F)cc3F)ncc12
Second: COc1cc2cc(CO)nc(-c3cccc(Cl)c3)c2cc1OC
The melting point of the first is higher: 211 to 214 °C for the first, 118 to 120 °C for the second.

First: CCCCCS(=O)(=O)NC(=O)OCc1ccc(OCCOC)cc1Oc1ncc(C(F)(F)F)cc1Cl
Second: CCCCOCCOC(=O)C(=O)Nc1nc(-c2ccccc2)cs1
The melting point of the first is higher: 130 to 132 °C for the first, 94 to 95 °C for the second.

`COC(=O)NNC(=O)C(F)(F)F` and `COC(=O)NNC(=S)Cc1ccc(C)cc1` cannot be ordered by melting point: 105 °C for the first, 104 to 105 °C for the second.

First: COC(=O)c1cc(-n2cnc(Br)c2)c(C(F)(F)F)cc1[N+](=O)[O-]
Second: COC(=O)c1ccccc1N(C)C(=O)CBr
The melting point of the first is higher: 90 °C for the first, 80 to 82 °C for the second.

First: O=C(Nc1ccc(C(=O)N2CCc3cn[nH]c3-c3ncccc32)c(Cl)c1)c1ccccc1-c1ccccc1
Second: CCOC(=O)Nc1ccc(C(c2ccccc2)n2ccnc2)cc1CO (stereo not drawn)
The melting point of the first is higher: 181 to 192 °C for the first, 143 °C for the second.

Compared with `CC(=O)c1ccc(Cc2c(Cl)cc(N)cc2Cl)cc1`, `COc1ccc(C(=O)Nc2ccc(C)c(C)c2)cc1N` is higher in melting point: 97 to 98 °C for the first, 138 to 142 °C for the second.

Compared with `CCNC(=S)Nc1ccccc1N1CCOCC1`, `CCOC(=O)c1nc(-c2ccc(=O)n(CC)c2)c(-c2ccccc2)nc1N` is higher in melting point: 118 to 120 °C for the first, 175 to 179 °C for the second.

First: CC(=O)c1ccc(Cl)nc1
Second: Cc1ccc2c(Cl)ccnc2c1NC(=O)c1c(Cl)cccc1Cl
The melting point of the first is lower: 101 to 102 °C for the first, 202 to 205 °C for the second.

First: O=C(O)CSCc1ccc([N+](=O)[O-])cc1
Second: CN(C)c1ccc([N+](=O)[O-])cc1C#N
The melting point of the first is lower: 101 to 104 °C for the first, 109 to 110 °C for the second.

First: Cc1nn(C)c(C)c1-c1cncc(OC2SCC(O)C(O)C2O)c1 (stereo not drawn)
Second: CC1(c2cccs2)Cc2cc(O)c(Cl)c(Cl)c2C1=O (stereo not drawn)
The melting point of the first is lower: 174 °C for the first, 224 to 226 °C for the second.

First: CC(C)(C)c1ccc(C[C@@H](C(=O)O)[C@@H](O)c2ccc(F)cc2)cc1 (racemic)
Second: CC(=O)N[C@@H](Cc1ccccc1)C[C@H](O)[C@H](Cc1ccccc1)N(Cc1ccccc1)Cc1ccccc1
The melting point of the first is higher: 102 to 104 °C for the first, 84 to 86 °C for the second.

First: COCCOCc1c(CN(C)CC(O)c2ccccn2)sc2c(=O)c(C(=O)NCc3ccc(Cl)cc3)cn(C)c12 (stereo not drawn)
Second: S=C1N=c2ccc(OCCN3CCC(Cc4ccc(Cl)cc4)CC3)cc2=N1
The melting point of the first is lower: 150 to 152 °C for the first, 291 to 293 °C for the second.

First: ClC(Cl)(Cl)c1nc(-c2ccc(OCCCn3ccnc3)cc2)no1
Second: c1ccc2c(c1)CSc1ccccc1C2n1ccnc1 (stereo not drawn)
The melting point of the first is lower: 102 to 103 °C for the first, 162 to 164 °C for the second.

First: COCC1CN(c2ccc3cc(OCCC#N)ccc3c2)C(=O)O1 (stereo not drawn)
Second: Cc1ccc(S(=O)(=O)OCC2COc3ccc(N)c(N)c3O2)cc1 (stereo not drawn)
The melting point of the first is lower: 110 to 112 °C for the first, 178 to 180 °C for the second.

Compared with `Cc1cc(SC(C)CC(Sc2cc(C)c(O)c(C(C)(C)C)c2)Sc2cc(C)c(O)c(C(C)(C)C)c2)cc(C(C)(C)C)c1O` (stereo not drawn), `CCOC(=O)C(=CNc1cscc1OC)C(=O)OCC` is higher in melting point: 65 to 69 °C for the first, 100 to 102 °C for the second.

First: O=S(=O)(c1ccccc1)C(CCCCl)c1ccccc1 (stereo not drawn)
Second: COc1ccc(C(N)CN)cc1 (stereo not drawn)
The melting point of the first is higher: 110 to 112 °C for the first, 64 °C for the second.

Compared with `CCCN1C(=O)CN(C)C1S(=O)(=O)N=NC(=O)Nc1nc(OC)cc(OC)n1` (stereo not drawn), `CCc1scc(C(=O)OC)c1NC(C)=O` is lower in melting point: 96 to 98 °C for the first, 85 to 86 °C for the second.

First: C#CC[C@]12CCC(=O)C=C1CC[C@@H]1[C@@H]2CC[C@]2(C)C(=O)CC[C@@H]12
Second: Clc1ccc(-c2nc3n(c2Cl)CCCC3)c(Cl)c1
The melting point of the first is higher: 174 to 175 °C for the first, 99 to 101 °C for the second.

`C=CCN(C(=O)C(C#N)=CNC(=N)N1CC(C)(C)NC1=O)c1cccc(C(F)(F)F)c1` gave a melting point of 184 to 185 °C.
